# Test results: publication PMC12907944, “Targeting RAD51-BRCA2 Interaction to Enhance Synthetic Lethality with Olaparib in Pancreatic Cancer: Development of a Novel Phenyl Furan-Quinoline-Carboxylic Acid Series” (ACS Medicinal Chemistry Letters, 2026)
# What was measured:
# [1] = test system: RAD51 foci formation in BxPC-3 cells; experiment: RAD51 foci immunofluorescence after cisplatin; assay type: cell-based, human
# [2] = test system: homologous recombination in BxPC-3 cells; experiment: HR Quick Assay (HR-QA); assay type: cell-based; conditions: Homo sapiens
# [3] = test system: BxPC-3 cells; experiment: cell viability (CellTiter-Glo), combination with olaparib, Interaction Index; assay type: cell-based, human; conditions: for Combination studies with olaparib: combination effect: BxPC-3 cells
# [4] = kinetic solubility; assay type: physicochemical; conditions: PBS, aqueous buffer, kinetic from dmso stock
# [5] = test system: normal pancreatic epithelial H-6037 cells; experiment: cell viability, combination with olaparib; assay type: cell-based, human; conditions: 19/ola combination, 6-day
# [6] = test system: γ-H2AX in BxPC-3 cells; experiment: γ-H2AX immunofluorescence; assay type: cell-based, human; conditions: BxPC-3, 72 h, 19 + ola combination
# [7] = test system: BxPC-3 3D spheroids; experiment: 3D spheroids cell viability (MTT) and volume; assay type: cell-based, human; conditions: BxPC-3 spheroids, 60 μM compound alone
# [8] = test system: homologous recombination in HEK-293 cells; experiment: m-Clover Lamin A assay (mCl-HR); assay type: cell-based, human
structure (smiles),measurement,setting,value
"N.N.[Cl][Pt][Cl] [CPL, cisplatin, reference compound]",RAD51-labelled nuclei,"[1]; BxPC-3, CPL alone (50 μM cisplatin)",56%
Cc1ccc2nc(-c3ccc(-c4ccccc4C(=O)O)o3)cc(C(=O)O)c2c1 [Compound 1],inhibition at 100 µM,"[2]; BXPC-3, at 100 μM",4%
same,inhibition at 50 µM,"[2]; BXPC-3, maximum inhibition, at 50 μM",35%
same,Combination studies with olaparib: combination effect,[3]; 144 h,additive (a result ranging from 0.8 to 1.2 denotes an additive effect)
same,solubility kinetic,[4],234 ± 9 µM
Cc1ccc2nc(-c3ccc(-c4ccccc4)o3)cc(C(=O)O)c2c1 [Compound 4],inhibition at 80 µM,"[2]; BXPC-3, maximum inhibition",63%
same,Combination studies with olaparib: combination effect,[3]; 144 h,additive (a result ranging from 0.8 to 1.2 denotes an additive effect)
Cc1ccc2nc(-c3ccc(-c4ccccc4F)o3)cc(C(=O)O)c2c1 [Compound 8],inhibition at 60 µM,"[2]; BXPC-3, maximum inhibition, at 60 μM",39%
CCc1ccc2nc(-c3ccc(-c4ccccc4)o3)cc(C(=O)O)c2c1 [Compound 16],inhibition at 80 µM,"[2]; BXPC-3, maximum inhibition",76%
same,cell viability reduction,"[3]; BxPC-3, compound alone at 40 µM",40%
same,Combination studies with olaparib: combination effect,[3]; 144 h,additive (a result ranging from 0.8 to 1.2 denotes an additive effect)
Nc1ccc2nc(-c3ccc(-c4ccccc4)o3)cc(C(=O)O)c2c1 [Compound 17],inhibition at 20 µM,"[2]; BXPC-3, maximum inhibition",77%
same,Combination studies with olaparib: combination effect,[3]; 144 h,additive (a result ranging from 0.8 to 1.2 denotes an additive effect)
O=C(O)c1cc(-c2ccc(-c3ccccc3)o2)nc2ccc(O)cc12 [Compound 18],inhibition at 20 µM,"[2]; BXPC-3, maximum inhibition",≤ 60%
COc1ccc2nc(-c3ccc(-c4ccccc4)o3)cc(C(=O)O)c2c1 [Compound 19],effect on cell viability of normal cells,[5],no significant effect
same,RAD51-labelled nuclei,"[1]; BxPC-3, 19 and CPL (50 μM cisplatin)",22%
same,γ-H2AX-labelled nuclei,[6],> 40%
same,inhibition at 80 µM,"[2]; BXPC-3, maximum inhibition",81%
same,IC50,[2]; multiple-dose HR-QA,21.7 ± 1.81 µM
same,Combination w/ola in BxPC-3 cells,"[3]; BxPC-3, Table S2",Synergism
same,impact on spheroid volume,[7],no significant impact
same,mClover-positive cells,"[8]; HEK-293, 40 μM",~4%
same,inhibition at 40 µM,"[8]; Homo sapiens, HEK293, HEK-293, 40 μM",~74%
same,solubility kinetic,[4],> 250 µM
Cc1ccc2nc(-c3ccc(-c4ccccc4)s3)cc(C(=O)O)c2c1 [Compound 20],inhibition at 20 µM,"[2]; BXPC-3, maximum inhibition",89%
same,cell viability reduction,"[3]; BxPC-3, 5 µM compound in combination with olaparib, 144 h",≈ 40%
same,Combination studies with olaparib: combination effect,[3]; 144 h,additive (a result ranging from 0.8 to 1.2 denotes an additive effect)
